Data reported in patent publication US9474790B2, “Stable, protracted GLP-1/glucagon receptor co-agonists for medical use” (Novo Nordisk A/S, priority 2013, dated 2016).
Numbered stars: 1 amine (or outer) side, 2 acyl side, 3 side chain; on linkers, the order of the positions; unused ones are H or OH. Square brackets hold non-standard residues; d marks the D form. Side chains are listed from the residue outwards. Peptide text beside a SMILES is read from it. * marks the point of attachment. C18 diacid = O=C(O)CCCCCCCCCCCCCCCCC(=O)*; γGlu = O=C(O)[C@H](CCC(=O)[*:2])N[*:1]; AEEA = NCCOCCOCC(=O)O; Ac3c = NC1(C(=O)O)CC1; Aib = CC(C)(N)C(=O)O

Columns and labels:
human GLP-1 receptor = target: T1, human GLP-1 receptor (Homo sapiens, UniProt P43220); assay: GLP-1 receptor potency, CRE luciferase reporter gene assay in BHK cells; assay type: cell-based; details: BHK cells expressing human GLP-1 receptor, read-out: EC50 GLP-1R
T1 construct: expressed in transfected cells; host or cells: BHK cells (parent BHKTS13), clone FCW467-12A/KZ10-1, with CRE luciferase
Procedure: The purpose of this example was to test the potency, of the glucagon derivatives of the invention, in vitro. The in vitro potency is the measure of human GLP-1 receptor or glucagon receptor activation, respectively, in a whole cell assay.
In vitro potency was determined by measuring the response of human GLP-1 or glucagon receptor, respectively, in a reporter gene assay. The assay was performed in a stably transfected BHK cell line that expresses either the human GLP-1 receptor or the human glucagon receptor and contains the DNA for the cAMP response element (CRE) coupled to a promoter and the gene for firefly luciferase (CRE luciferase). […] When assay incubation was completed, the luciferase substrate (luciferin) was added and the enzyme converted luciferin to oxyluciferin and produces bioluminescence. The luminescence was measured as the readout for the assay.
The cells used in this assay (clone FCW467-12A/KZ10-1) were BHK cells with BHKTS13 as a parent cell line. The cells were derived from a clone (FCW467-12A) that expresses the human GLP-1 receptor and were established by further transfection with
CRE luciferase to obtain the current clone.
The cells were cultured at 5% CO2 in DMEM medium with 10% FBS, 1×GlutaMAX, 1 mg/ml G418, 240 nM MTX (methotrexate) and 1% pen/strep (penicillin/streptomycin). They were aliquoted and stored in liquid nitrogen. Before each assay, an aliquot was taken up and washed three times in PBS before being suspended at the desired concentration in assay medium. For 96-well plates the suspension was made to give a final concentration of 5×10EE3 cells/well.
The following chemicals were used in the assay: Pluronic F-68 (10%) (Gibco 2404), ovalbumin (Sigma A5503), DMEM w/o phenol red (Gibco 11880-028), 1 M Hepes (Gibco 15630), Glutamax 100× (Gibco 35050) and steadylite plus (PerkinElmer 6016757).
Assay Medium consisted of DMEM w/o phenol red, 10 mM Hepes, lx GlutaMAX, 2% Ovalbumin and 0.2% Pluronic F-68.
Cell stocks were thawed in a 37° C. water bath. Cells were washed three times in PBS. The cells were counted and adjusted to 5×10EE3 cells/50 μl (1×10EE5 cells/ml) in Assay Medium. A 50 μl aliquot of cells was transferred to each well in the assay plate.
Stocks of the test compounds and reference compounds were diluted to a concentration of […] in Assay Medium. Compounds were diluted 10-fold to give the following concentrations: 2×10EE-6 M, 2×10EE-7 M, 2×10EE-8 M; 2×10EE-9 M, 2×10EE-10 M, 2×10EE-11 M, 2×10EE-12 M and 2×10EE-13 M. For each compound a blank assay medium control was also included.
A 50 μl aliquot of compound or blank was transferred from the dilution plate to the assay plate. Compounds were tested at the following final concentrations: 1×10EE-6 M, 1×10EE-7 M, 1×10EE-8 M; 1×10EE-9 M, 1×10EE-10 M, 1×10EE-11 M and 1×10EE-12 M and 1×10EE-13 M.
The assay plate was incubated for 3 h in a 5% CO2 incubator at 37° C. The assay plate was removed from the incubator and allowed to stand at room temperature for 15 min. A 100 μl aliquot of steadylite plus reagent was added to each well of the assay plate (reagent is light sensitive). Each assay plate was covered with aluminum foil to protect it from light and shaken for 30 min at room temperature. Each assay plate was read in a Perkin Elmer TopCount NXT instrument.
The data from the TopCount instrument was transferred to GraphPad Prism software. The software performed a non-linear regression (log(agonist) vs response-Variable slope (four parameter)). EC50 values were calculated by the software and reported in pM.

[1] = Thioflavin T (ThT) fibrillation assay for physical stability; assay type: physicochemical; details: 250 μM in 10 mM HEPES buffer, pH 7.5, 37° C., shaking 960 rpm
How it was run: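 Peptide at 250 μM in 10 mM HEPES pH 7.5 with 1 μM ThT, at 37° C with 960 rpm orbital shaking. Fluorescence (ex 444/em 485 nm) read every 20 min after 10 min pre-incubation; sigmoidal fit gives lag time (t0−2τ) and kapp (1/τ). Recovery is RP-HPLC peptide in the centrifuged, 0.22 μm-filtered supernatant as % of initial.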

T1 sequence (P43220 24-463): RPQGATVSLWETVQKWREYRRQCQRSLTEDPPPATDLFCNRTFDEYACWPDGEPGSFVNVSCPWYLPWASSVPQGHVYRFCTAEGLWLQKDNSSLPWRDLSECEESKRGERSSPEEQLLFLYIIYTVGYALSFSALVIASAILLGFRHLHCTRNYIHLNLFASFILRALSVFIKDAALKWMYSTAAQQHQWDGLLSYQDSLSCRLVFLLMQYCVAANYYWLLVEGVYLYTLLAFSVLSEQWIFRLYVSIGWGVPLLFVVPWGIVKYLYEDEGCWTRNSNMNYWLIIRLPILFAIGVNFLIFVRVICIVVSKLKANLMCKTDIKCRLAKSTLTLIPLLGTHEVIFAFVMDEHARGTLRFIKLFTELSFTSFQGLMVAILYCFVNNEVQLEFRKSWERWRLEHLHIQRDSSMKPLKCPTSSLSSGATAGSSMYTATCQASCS

EC50 (human GLP-1 receptor)	THT assay Lag time (Ex. 76) [1]	Structure (SMILES)
0.011 nM	28 h	CC(C)C[C@H](NC(=O)[C@H](Cc1ccc(O)cc1)NC(=O)[C@H](CCCCN)NC(=O)[C@H](CO)NC(=O)[C@H](CC(C)C)NC(=O)[C@H](CC(=O)O)NC(=O)[C@H](CO)NC(=O)[C@@H](NC(=O)[C@H](Cc1ccccc1)NC(=O)[C@@H](NC(=O)CNC(=O)[C@H](CCC(N)=O)NC(=O)C1(NC(=O)[C@@H](N)Cc2c[nH]cn2)CC1)[C@@H](C)O)[C@@H](C)O)C(=O)N[C@@H](CCC(=O)O)C(=O)N[C@@H](CO)C(=O)N[C@@H](CCCNC(=N)N)C(=O)N[C@@H](CCCNC(=N)N)C(=O)N[C@@H](C)C(=O)N[C@@H](CCCNC(=N)N)C(=O)N[C@@H](CCC(=O)O)C(=O)N[C@@H](Cc1ccccc1)C(=O)N[C@H](C(=O)N[C@@H](CCC(N)=O)C(=O)N[C@@H](Cc1c[nH]c2ccccc12)C(=O)N[C@@H](CC(C)C)C(=O)N[C@@H](CC(C)C)C(=O)N[C@@H](CCCCNC(=O)CC[C@H](NC(=O)CC[C@H](NC(=O)COCCOCCNC(=O)COCCOCCNC(=O)CC[C@H](NC(=O)CCCCCCCCCCCCCCCCC(=O)O)C(=O)O)C(=O)O)C(=O)O)C(=O)N[C@H](C(N)=O)[C@@H](C)O)C(C)C [Example 50, N^ε28-[(4S)-4-carboxy-4-[[(4S)-4-carboxy-4-[[2-[2-[2-[[2-[2-[2-[[(4S)-4-carboxy-4-(17-carboxyheptadecanoylamino)butanoyl]amino]ethoxy]ethoxy]acetyl]amino]ethoxy]ethoxy]acetyl]amino]butanoyl]amino]butanoyl]-[Acpr2,Leu10,Glu15,Arg20,Glu21,Leu27,Lys28]-Glucagon amide] (H-H[Ac3c]QGTFTSDLSKYLESRRAREFVQWLLK([γGlu-γGlu-AEEA-AEEA-γGlu-C18 diacid])T-NH2; N-terminus assumed)
0.011 nM	45 h	CC(C)C[C@H](NC(=O)[C@H](CC(=O)O)NC(=O)[C@H](CC(C)C)NC(=O)[C@H](Cc1ccc(O)cc1)NC(=O)[C@H](CCCCN)NC(=O)[C@H](CO)NC(=O)[C@H](CC(C)C)NC(=O)[C@H](CC(=O)O)NC(=O)[C@H](CO)NC(=O)[C@@H](NC(=O)[C@H](Cc1ccccc1)NC(=O)[C@@H](NC(=O)CNC(=O)[C@H](CCC(N)=O)NC(=O)C(C)(C)NC(=O)[C@@H](N)Cc1c[nH]cn1)[C@@H](C)O)[C@@H](C)O)C(=O)N[C@@H](CCCNC(=N)N)C(=O)N[C@@H](CCCNC(=N)N)C(=O)N[C@@H](C)C(=O)N[C@@H](CCC(N)=O)C(=O)N[C@@H](CC(=O)O)C(=O)N[C@@H](Cc1ccccc1)C(=O)N[C@H](C(=O)N[C@@H](CCC(N)=O)C(=O)N[C@@H](Cc1c[nH]c2ccccc12)C(=O)N[C@@H](CC(C)C)C(=O)N[C@@H](CC(C)C)C(=O)N[C@@H](CCCCNC(=O)CC[C@H](NC(=O)CC[C@H](NC(=O)[C@H](CO)NC(=O)[C@H](CCC(=O)O)NC(=O)[C@H](CO)NC(=O)CC[C@H](NC(=O)CC[C@H](NC(=O)CCCCCCCCCCCCCCCCC(=O)O)C(=O)O)C(=O)O)C(=O)O)C(=O)O)C(=O)N[C@H](C(N)=O)[C@@H](C)O)C(C)C [Example 53, N^ε28-[(4S)-4-carboxy-4-[[(4S)-4-carboxy-4-[[(2S)-2-[[(2S)-4-carboxy-2-[[(2S)-2-[[(4S)-4-carboxy-4-[[(4S)-4-carboxy-4-(17-carboxyheptadecanoylamino)butanoyl]amino]butanoyl]amino]-3-hydroxypropanoyl]amino]butanoyl]amino]-3-hydroxypropanoyl]amino]butanoyl]amino]butanoyl]-[Aib2,Leu10,Leu16,Leu27,Lys28]-Glucagon amide] (H-H[Aib]QGTFTSDLSKYLDLRRAQDFVQWLLK([γGlu-γGlu-Ser-Glu-Ser-γGlu-γGlu-C18 diacid])T-NH2; N-terminus assumed)
